# Patent US11246817B2, “Antimicrobial composition” (Conopco, Inc., priority 2016, dated 2022)
# Read-outs that look alike come from different tables or passages of the source.
# System: M. furfur (CBS 1878)
# Assay: ΣFIC assay against Malassezia furfur (in-vitro susceptibility testing, alamar blue)
# Assay type: cell-based
# Settings: for MIC: Malassezia furfur; for interaction with zinc pyrithione (synergy) in words: binary combination with zinc pyrithione, judged from ΣFIC; for ΣFIC: in combination with zinc pyrithione 0 to 12.5 ppm, climbazole 0 to 500 ppm, selenium sulfide 0 to 100 ppm
# Experimental: A brief description of the method is given below.
# Methods: ΣFIC assay against Malassezia furfur
# They are then incubated at 32° C. for 48 hrs with shaking. Then, 1 ml of the first broth culture is transferred into 9 ml of fresh PB and incubated at 32° C. for 48 hrs with shaking. The final culture should contain 2 to 6×10^6 cells/ml. This is achieved by diluting using PB to 5*10^5 cell/ml.
# The alcoholic compound was serially diluted (2-fold) to prepare in a range of 10-10,000 ppm in growth medium.
# Binary combinations of ZPTO and the testing compound were prepared in 96-well plate by mixing 20 μl of zinc pyrithione solution with 20 μl of testing compound. The solution in each well were further mixed with 160 μl of PB and 20 μl of M. furfur. The final cell density in the testing plate is around 5*10^4 cell/ml, and the final concentration of actives in each well of the 96-wel plate were shown below.
# The plate was incubated at 32° C. for one day. Then 20 μl of alamar blue (0.01%) was added into each well with a further incubation for one day to observe the color change. Red color indicates microbial growth and the non-changing blue color indicates no growth.
# The MIC is defined as the absolute lowest concentration of active that provides complete microbial growth inhibition as indicated by the blue color of alamar blue under the tested condition.
# The differing behaviours of inhibitory antimicrobials in isolation and mixtures have been widely explored using the concept of the Fractional Concentration (FC) and Fractional
# Inhibitory Concentration (FIC). The parameter can be defined as follows: […]
# The interactions between antimicrobials can be additive, synergistic or antagonistic depending on whether the efficacy of the combination is equivalent to, greater than or less than that obtained for the same total concentration of the individual components when tested alone.
# These relationships can be expressed mathematically by summing the fractional MIC values for all the components present in the mixture to give the “fractional inhibition index”. There is no consistent approach in the academic or patent literature in defining precise limiting ΣFIC values that differentiate synergy from additivity or antagonism. In this study, we have adopted a liberal approach defining any binary mixture with ΣFIC <0.9 as showing evidence of synergistic behavior.
# ΣFIC=FIC (component 1)+FIC (component 2)
# ΣFIC=1 corresponds to additive bactericidal activity
# ΣFIC>1 corresponds to antagonistic bactericidal activity
# ΣFIC<0.9 corresponds to synergistic bactericidal activity
# Climbazole was varied over a concentration of 0 to 500 ppm and selenium sulfide over a concentration of 0 to 100 ppm.
# [1] = CBS1878, read-out: Minimum Inhibition Concentration (MIC)
"MIC (CBS1878, active alone, lowest concentration giving complete growth inhibition (alamar blue stays blue), 32° C., Pityrosporum Broth, read-out: Minimum Inhibition Concentration (MIC))",SMILES,interaction with zinc pyrithione (synergy) in words,ΣFIC,MIC [1],"Minimum Inhibition Concentration (MIC) (active alone, lowest concentration giving complete growth inhibition (alamar blue stays blue), 32° C., Pityrosporum Broth)"
3.9 µg/mL,CC(C)(C)C(=O)C(Oc1ccc(Cl)cc1)n1ccnc1 (stereo not drawn) [climbazole],not synergistic,2,–,–
–,C=CCc1ccc(O)c(-c2ccc(O)c(CC=C)c2)c1 [honokiol],–,–,1000 µg/mL,–
–,C=CCc1ccc(O)c(-c2cc(CC=C)ccc2O)c1 [magnalol],–,–,500 µg/mL,–
–,COc1ccc(C(C)=O)c(O)c1 [paeonol],–,–,500 µg/mL,–
–,S=[Se]=S [selenium sulfide],not synergistic,2,–,50 ppm
